Measured values from patent US20070092551A1, “Therapeutic agent” (TAKARA BIO INC., priority 2003, published 2007).

Legend:
Format in all cases: cell-based
[1] = system: mature adipocytes (3T3-L1 cells); assay: Glucose uptake enhancement inhibited by cytochalasin B; settings: cytochalasin B 40 μM added to the 4-hydroxyderricin 7.8 μM, insulin 1 μg/mL and negative control groups
Description: The influence of cytochalasin B on 2-deoxyglucose uptake into matured adipocytes during the stimulation with the sample in the adipocytes was tested in accordance with the method shown in Example 83 on whether or not the enhancing action of 4-hydroxyderricin on glucose uptake shown in Example 83 is inhibited by cytochalasin B, which is an inhibitor of a glucose transporter.
Specifically, as a sample, a group with addition of a dimethyl sulfoxide solution of 4-hydroxyderricin so as to have a final concentration of 7.8 μM was set. Here, there were set a group without addition of the sample as a negative control and a group with addition of insulin so as to have a final concentration of 1 μg/mL as a positive control. Furthermore, there was set a group with addition of cytochalasin B (manufactured by nacalai tesque, 10435-81) to each group so as to have a final concentration of 40 μM in the same time as the time of addition of insulin. Thereafter, 2-deoxy-[1,2-^3H(N)]-glucose subjected to uptake into the adipocytes was determined in the same manner.

3T3-L1 cells = assay: Induction of adipocyte differentiation (amount of triglyceride biosynthesis); settings: Mus musculus, 3T3-L1, X=(S−N)/(P−N) of amount of triglyceride, P=insulin positive control, read-out: Action for Induction of Differentiation
How it was run: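 Differentiation scored as X=(S−N)/(P−N), ranked +++, ++, +, +/−, where S, N and P are triglyceride with compound, DMSO and insulin; triglyceride was extracted with hexane:isopropanol (3:2) and assayed twice. Compound was added after 7 days' growth, first with 0.25 μM dexamethasone (45 h), then for 7 days.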

[2] = system: mature adipocytes (3T3-L1 cells); assay: Enhancing action on glucose uptake (2-deoxyglucose) into mature adipocytes; settings: Mus musculus, 3T3-L1, X=(S−N)/(P−N) of 2-deoxyglucose uptake, P=insulin 1 μg/mL, read-out: Enhancing Action on Glucose Uptake
[3] = target: T1, fusion protein of an yeast GAL4 DNA-binding domain and a human PPARγ ligand-binding site (Homo sapiens, UniProt P37231); assay: PPARγ activation reporter assay in CV-1 cells; settings: test compound 10 μM, pFA-CMV (PPARγ), 24 hours
T1 construct: expressed in transfected cells; host or cells: CV-1 cells
T1 sequence (P37231 204-505): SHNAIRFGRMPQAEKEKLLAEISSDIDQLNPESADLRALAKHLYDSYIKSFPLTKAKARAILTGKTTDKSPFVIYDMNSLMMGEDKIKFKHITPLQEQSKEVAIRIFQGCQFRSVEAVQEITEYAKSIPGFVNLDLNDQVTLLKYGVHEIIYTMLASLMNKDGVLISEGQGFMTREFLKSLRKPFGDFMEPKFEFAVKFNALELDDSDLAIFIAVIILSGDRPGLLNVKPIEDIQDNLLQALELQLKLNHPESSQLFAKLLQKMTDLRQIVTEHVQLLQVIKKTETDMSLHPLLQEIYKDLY
Description: The activation ability for PPARγ was determined by a reporter assay using a fusion protein of an yeast GAL4 DNA-binding domain and a human PPARγ ligand-binding site.
A plasmid (pGAL4/GL3-Promoter) was prepared by repeating five times insertion of a binding site (UASg) of GAL4 into a multicloning site of a pGL3-Promoter vector (Promega). In addition, a ligand-binding site (amino acid sequence 204 to 505) of the PPARγ gene was cloned from a human liver cDNA library (manufactured by TAKARA BIO INC.) by a polymerase chain reaction, and the ligand-binding site was inserted into a multicloning site of a pFA-CMV plasmid vector ([…]) to give pFA-CMV (PPARγ).
Escherichia coli JM-109 strain was transformed with each of the two kinds of the plasmids obtained by the above-mentioned procedures, and pFA-CMV and pRL-TK (Promega) according to a conventional method. Each of the Escherichia coli cells was cultured with shaking at 37° C. for 18 hours in an LB medium containing 100 μg/mL ampicillin. Thereafter, the plasmids of each were purified according to the procedure manual of QIAfilter Plasmid midi Kit (QIAGEN).
CV-1 cells were seeded in a 24-well plate so as to have a density of 4×10^4 cells per well. Thereafter, the cells were cultured in a Dulbecco's modified Eagle's medium (manufactured by Sigma, D5796) containing 10% fetal bovine serine (manufactured by Bio Whittaker) for 24 hours under the conditions of 37° C. and 5% CO2. Thereafter, in accordance with the procedure manual of LipofectAmine 2000 (Invitrogen), the gene transfer was carried out into the CV-1 cells with 200 ng of pFA-CMV (PPARγ) or pFA-CMV, 400 ng of pGAL4/GL3-promoter, and 200 ng of pRL-TK per well, and thereafter the cells were cultured for 24 hours under the conditions of 37° C. and 5% CO2. Thereafter, the medium was exchanged with a Dulbecco's modified Eagle's medium to which a test compound dissolved in dimethyl sulfoxide was previously added so as to have a final concentration of 10 μM. Thereafter, the cells were cultured for additional 24 hours. In addition, there were set a group with addition of dimethyl sulfoxide in place of a test compound as a negative control, and a group with addition of troglytazone (manufactured by Calbiochem) so as to have a final concentration of 3 μM as a positive control. The cells were washed with a phosphate buffered saline, and 5× PassiveLysisBuffer (Promega) which was previously diluted in 5-folds with distilled water was added thereto in an amount of 100 μL per well. The mixture was shaken at room temperature for 15 minutes to lyse cells. Twenty microliters of this lysed solution was applied in accordance with the procedure manual of Dual Luciferase Assay System (Promega), and a fluorescent luciferase emission intensity and a Renilla mullerei luciferase emission intensity were measured using Mithras-LB940 (BERTHOLD TECHNOLOGIES GmbH). The enhancing action for transcriptional activation of each test compound was shown as a relative value obtained by calculating a ratio of the fluorescent luciferase emission intensity to the Renilla mullerei luciferase emission intensity, wherein the value of the group with addition of the negative control is defined as 1.

Compound	2-deoxy-[1,2-3H(N)]-glucose uptake on addition of cytochalasin B [1]	activation at 3 µM (3T3-L1 cells)	activation at 10 µM (3T3-L1 cells)	activation at 10 µM [2]	activation at 30 µM [2]	activation at 1 µM (3T3-L1 cells; 1 μM)	activation at 3 µM [2]	activation at 4 µM (3T3-L1 cells)	activation at 13 µM (3T3-L1 cells)	enhancing action for transcriptional activation (PPARγ) [3]
C=C1[C@@H](C)[C@H]2[C@H](Cc3ccccc3)NC(=O)[C@]23OC(=O)/C=C/[C@H](O)CCC[C@@H](C)C/C=C/[C@H]3[C@@H]1O [cytochalasin B, reference compound]	almost completely inhibited									
O=C(/C=C/c1ccc(O)cc1)c1ccc(O)c(Cc2ccccc2)c1O [Compound (C057), 4,2′,4′-trihydroxy-3′-benzylchalcone]		30 to 60%	> 100%	15 to 30%	> 100%					
COc1ccc(C(=O)/C=C/c2ccc(O)cc2)c(O)c1Cc1ccccc1 [Compound (C056), 4,2′-dihydroxy-3′-benzyl-4′-methoxychalcone]		30 to 60%	> 100%	> 100%	> 100%	15 to 30%	15 to 30%			
O=C(/C=C/c1ccc(Cl)cc1)c1ccccc1OCc1ccccc1 [Compound (C066), 4-chloro-2′-benzyloxychalcone]		60 to 100%	> 100%	60 to 100%	60 to 100%					
COc1ccc(/C=C/C(=O)c2ccc(OC)c(CC=C(C)C)c2O)cc1 [Compound (C035), 4,4′-dimethoxy-2′-hydroxy-3′-prenylchalcone]		60 to 100%	> 100%	30 to 60%	60 to 100%					
COc1ccc(C(=O)/C=C/c2ccc(O)cc2)c(O)c1 [Compound (C020), 4,2′-dihydroxy-4′-methoxychalcone]				30 to 60%	60 to 100%			30 to 60%	60 to 100%	
CC(C)=CCC/C(C)=C/Cc1c(O)ccc(C(=O)/C=C/c2ccc(Cl)cc2)c1O [Compound (C074), 4-chloro-2′,4′-dihydroxy-3′-geranylchalcone]		15 to 30%	30 to 60%		30 to 60%					
COc1ccc(/C=C/C(=O)c2ccc(OC)c(CC=C(C)C)c2O)c(O)c1CC=C(C)C [Compound (C072), 2,2′-dihydroxy-3,3′-diprenyl-4,4′-dimethoxychalcone]		> 100%	> 100%		30 to 60%					
COc1ccc(C(=O)/C=C/c2ccc(OC(C)=O)cc2)c(OC(C)=O)c1C/C=C(\C)CCC=C(C)C [Compound (C064-1), 4,2′-diacetoxy-3′-geranyl-4′-methoxychalcone]		> 100%	> 100%	60 to 100%	> 100%					
CC(C)=CCC/C(C)=C/Cc1c(OCc2ccccc2)ccc(C(=O)/C=C/c2ccc(O)cc2)c1O [Compound (C073), 4,2′-dihydroxy-3′-geranyl-4′-benzyloxychalcone]		15 to 30%		15 to 30%			15 to 30%			
CCOC(C)(C)C(O)CC/C(C)=C/Cc1c(O)ccc(C(=O)/C=C/c2ccc(O)cc2)c1O (stereo not shown) [TB6, 1-[3-(7-ethoxy-6-hydroxy-3,7-dimethyl-2-octenyl)-2,4-dihydroxyphenyl]-3-(4-hydroxyphenyl)-2-propen-1-one]		15 to 30%	> 100%		30 to 60%					
C=C(C)C(CC/C(C)=C/Cc1c(OC)ccc(C(=O)/C=C/c2ccc(O)cc2)c1O)OO (stereo not shown) [TB9, 1-[2-hydroxy-3-(6-hydroperoxy-3,7-dimethyl-2,7-octadienyl)-4-methoxyphenyl]-3-(4-hydroxyphenyl)-2-propen-1-one]			> 100%	15 to 30%	30 to 60%		15 to 30%			
COc1cc(O)c(CC=C(C)C)c(O)c1C(=O)/C=C/c1ccc(O)cc1 [Xanthohumol, 4,2′,4′-trihydroxy-3′-prenyl-6′-methoxychalcone]								15 to 30%	30 to 60%	no enhancing action for transcriptional activation was found
